From patent US6737383B1, “Herbicidal oxadiazolidines” (priority 1999, dated 2004)

Legend:
[1] = test system: soybean; assay: Test B pre/postemergence soybean; assay type: in vivo, Glycine max
Method in brief: (§1)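 Test chemicals in a non-phytotoxic solvent mixture with surfactant were sprayed preemergence onto planted seeds and postemergence onto plants 2 to 18 cm tall (1- to 4-leaf stage). After twelve to sixteen days in a greenhouse, injury was visually rated against untreated controls from 0 (no effect) to 10 (complete control).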

[2] = test system: wheat; assay: Test B pre/postemergence wheat; assay type: in vivo, Triticum aestivum
Method in brief: as §1

[3] = test system: wild oat; assay: Test B pre/postemergence wild oat; assay type: in vivo, Avena fatua
Method in brief: as §1

[4] = test system: smallflower flatsedge; assay: Test B flood test smallflower flatsedge; assay type: in vivo, Cyperus difformis; settings: for Plant response rating, S. Flatsedge (0 to 10 scale, 0 is no effect, 10 is complete control) / S. Flatsedge plant response rating (0 to 10 scale, 0 is no effect, 10 is complete control): visual evaluation after twelve to sixteen days; for S. Flatsedge plant response rating (0 to 10 scale, 0 is no effect, 10 is complete control): under heading Pre-emergence
Method in brief: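 Read-out is a visual response score from 0 (no effect) to 10 (complete control), assigned by comparison with untreated controls. Treatment was applied at the 2-leaf stage, and plants stayed in the greenhouse for twelve to sixteen days before scoring.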

[5] = test system: crabgrass; assay: Test B pre/postemergence crabgrass; assay type: in vivo, Digitaria sanguinalis
Method in brief: as §1

[6] = Postemergence, Rate 62 g/ha, scale 0 to 10, 0 is no effect, 10 is complete control
[7] = Postemergence, Rate 125 g/ha, scale of 0 to 10 where 0 is no effect and 10 is complete control
[8] = Postemergence, Rate 250 g/ha, scale of 0 to 10, 0 is no effect, 10 is complete control
[9] = Postemergence, Rate 500 g/ha, scale of 0 to 10 where 0 is no effect and 10 is complete control
[10] = Preemergence, Rate 62 g/ha, scale 0 to 10 (0 no effect, 10 complete control)
[11] = Preemergence, Rate 125 g/ha, scale of 0 to 10 where 0 is no effect and 10 is complete control
[12] = Preemergence, Rate 500 g/ha, scale of 0 to 10 where 0 is no effect and 10 is complete control
[13] = Rate 62 g/ha, flood test species, Pre-emergence
[14] = Rate 125 g/ha, flood test species
[15] = Rate 250 g/ha, Pre-emergence (flood test species), scale 0 to 10, 0 is no effect, 10 is complete control
[16] = Rate 500 g/ha, Pre-emergence section of Table B, 0 to 10 scale (0 no effect, 10 complete control)
[17] = Postemergence, Rate 125 g/ha, scale 0 to 10, 0 is no effect, 10 is complete control
[18] = Preemergence, Rate 62 g/ha, scale of 0 to 10 where 0 is no effect and 10 is complete control
[19] = Preemergence, Rate 250 g/ha, scale of 0 to 10 where 0 is no effect and 10 is complete control
[20] = Rate 62 g/ha, Postemergence, scale 0 to 10 (0 no effect, 10 complete control)
[21] = Rate 500 g/ha, Postemergence, scale 0 to 10, 0 no effect, 10 complete control
[22] = Postemergence, Rate 250 g/ha, scale 0 to 10, 0 no effect, 10 complete control
[23] = Preemergence, Rate 62 g/ha, scale 0 to 10, 0 is no effect, 10 is complete control
[24] = Preemergence, Rate 125 g/ha, scale 0 to 10 (0 no effect, 10 complete control)
[25] = Preemergence, Rate 500 g/ha, scale 0 (no effect) to 10 (complete control)
[26] = Rate 125 g/ha, Postemergence, scale 0 to 10, 0 no effect, 10 complete control
[27] = Preemergence, Rate 250 g/ha, scale 0 to 10 (0 no effect, 10 complete control)

C=C(Cn1c(=O)on(C(=O)N(c2ccccc2)C(C)C)c1=O)c1cccc(Cl)n1 [Compound 605]
10: Plant response rating, Crabgrass [5, 12]
3: Soybean plant response rating [1, 8] | Plant response rating, Crabgrass [5, 9] | Crabgrass plant response rating [5, 11]
1: Plant response rating, Wheat [2, 6] | Plant response rating, Wheat [2, 7] | Wheat plant response rating [2, 8] | Plant response rating, Wild oats [3, 7] | Wild oats plant response rating [3, 8] | Crabgrass plant response rating [5, 8]
0: Soybean plant response rating [1, 10] | Soybean plant response rating [1, 11] | Plant response rating, Soybean [1, 12] | Wheat plant response rating [2, 10] | Wheat plant response rating [2, 11] | Plant response rating, Wheat [2, 12] | Wild oats plant response rating [3, 10] | Wild oats plant response rating [3, 11] | Plant response rating, Wild oats [3, 12] | Plant response rating, S. Flatsedge (0 to 10 scale, 0 is no effect, 10 is complete control) [4, 13] | S. Flatsedge plant response rating (0 to 10 scale, 0 is no effect, 10 is complete control) [4, 14] | S. Flatsedge plant response rating [4, 15] | S. Flatsedge plant response rating [4, 16] | Plant response rating, Crabgrass [5, 6] | Plant response rating, Crabgrass [5, 7] | Crabgrass plant response rating [5, 10]
2: Plant response rating, Soybean [1, 6] | Plant response rating, Soybean [1, 7] | Plant response rating, Wheat [2, 9] | Plant response rating, Wild oats [3, 6] | Plant response rating, Wild oats [3, 9]
5: Plant response rating, Soybean [1, 9]

Cc1ccc(N(C(=O)n2oc(=O)n(-c3ccc4ccccc4c3)c2=O)C(C)C)cc1 [Compound 334]
2: Plant response rating, Soybean [1, 21]
0: Soybean plant response rating [1, 18] | Soybean plant response rating (0 to 10 scale) ([1]; Preemergence, Rate 125 g/ha) | Soybean plant response rating [1, 19] | Soybean plant response rating [1, 12] | Plant response rating, Wheat [2, 17] | Wheat plant response rating [2, 18] | Wheat plant response rating (0 to 10 scale) ([2]; Preemergence, Rate 125 g/ha) | Wheat plant response rating [2, 19] | Wheat plant response rating [2, 12] | Wheat plant response rating [2, 20] | Plant response rating, Wheat [2, 21] | Plant response rating, Wild oats [3, 17] | Wild oats plant response rating [3, 18] | Wild oats plant response rating (0 to 10 scale) ([3]; Preemergence, Rate 125 g/ha) | Wild oats plant response rating [3, 19] | Wild oats plant response rating [3, 12] | Wild oats plant response rating [3, 20] | Plant response rating, Wild oats [3, 21] | S. Flatsedge plant response rating ([4]; Rate 62 g/ha, headed Pre-emergence (flood test species), scale 0 to 10 (0 no effect, 10 complete control)) | S. Flatsedge plant response rating ([4]; Rate 125 g/ha, Pre-emergence, flood test species, scale 0 to 10 where 0 is no effect and 10 is complete control) | S. Flatsedge plant response rating ([4]; Rate 250 g/ha, Pre-emergence, flood-test species, scale 0 to 10, 0 is no effect, 10 is complete control) | S. Flatsedge plant response rating ([4]; Rate 500 g/ha, Pre-emergence, flood test species, scale 0 to 10 (0 no effect, 10 complete control)) | Plant response rating, Crabgrass [5, 17] | Crabgrass plant response rating [5, 18] | Crabgrass plant response rating (0 to 10 scale) ([5]; Preemergence, Rate 125 g/ha) | Crabgrass plant response rating [5, 19] | Crabgrass plant response rating [5, 12] | Crabgrass plant response rating [5, 20] | Plant response rating, Crabgrass [5, 21]
1: Plant response rating, Soybean [1, 17] | Soybean plant response rating [1, 20]

Cc1cccc(Cl)c1-n1c(=O)on(C(=O)N(c2ccc(Cl)cc2)C(C)C)c1=O [Compound 54]
0: Soybean plant response rating [1, 6] | Soybean plant response rating [1, 22] | Plant response rating, Soybean [1, 23] | Plant response rating, Soybean [1, 24] | Plant response rating, Soybean [1, 19] | Soybean plant response rating [1, 25] | Soybean plant response rating [1, 26] | Soybean plant response rating [1, 21] | Wheat plant response rating [2, 6] | Wheat plant response rating [2, 22] | Plant response rating, Wheat [2, 23] | Plant response rating, Wheat [2, 24] | Plant response rating, Wheat [2, 19] | Wheat plant response rating [2, 25] | Wheat plant response rating [2, 26] | Wheat plant response rating [2, 21] | Wild oats plant response rating [3, 6] | Wild oats plant response rating [3, 22] | Plant response rating, Wild oats [3, 24] | Plant response rating, Wild oats [3, 19] | Wild oats plant response rating [3, 25] | Wild oats plant response rating [3, 26] | Wild oats plant response rating [3, 21] | S. Flatsedge plant response rating [4, 6] | S. Flatsedge plant response rating ([4]; Rate 125 g/ha, Postemergence section (flood test species), scale 0 to 10, 0 no effect, 10 complete control) | S. Flatsedge plant response rating ([4]; Rate 500 g/ha, listed under Postemergence (flood test species), scale 0 to 10, 0 no effect, 10 complete control) | S. Flatsedge plant response rating ([4]; flood test, listed under Postemergence, Rate 250 g/ha, scale 0 to 10, 0 no effect, 10 complete control) | Crabgrass plant response rating [5, 6] | Crabgrass plant response rating [5, 26]
5: Crabgrass plant response rating [5, 21]
2: Crabgrass plant response rating [5, 22] | Plant response rating, Crabgrass [5, 23] | Plant response rating, Crabgrass [5, 24]
8: Crabgrass plant response rating [5, 25]
3: Plant response rating, Crabgrass [5, 19]

C=C(Cl)Cn1c(=O)on(C(=O)N(c2ccc(F)cc2F)C(C)C)c1=O [Compound 634]
2: Plant response rating, Soybean [1, 7] | Wild oats plant response rating [3, 18]
3: Plant response rating, Soybean [1, 6] | Soybean plant response rating [1, 8] | Plant response rating, Crabgrass [5, 7]
10: Plant response rating, Crabgrass [5, 27] | Plant response rating, Crabgrass [5, 12]
0: Soybean plant response rating [1, 18] | Soybean plant response rating [1, 11] | Plant response rating, Soybean [1, 27] | Plant response rating, Soybean [1, 12] | Plant response rating, Wheat [2, 6] | Plant response rating, Wheat [2, 7] | Wheat plant response rating [2, 8] | Wheat plant response rating [2, 18] | Wheat plant response rating [2, 11] | Plant response rating, Wheat [2, 27] | Plant response rating, Wheat [2, 12] | Plant response rating, Wild oats [3, 6] | Plant response rating, Wild oats [3, 7] | Wild oats plant response rating [3, 8] | Plant response rating, S. Flatsedge (0 to 10 scale, 0 is no effect, 10 is complete control) [4, 13] | S. Flatsedge plant response rating (0 to 10 scale, 0 is no effect, 10 is complete control) [4, 14] | S. Flatsedge plant response rating [4, 15] | S. Flatsedge plant response rating [4, 16] | Plant response rating, Crabgrass [5, 6]
8: Crabgrass plant response rating [5, 11]
7: Plant response rating, Wild oats [3, 12] | Crabgrass plant response rating [5, 8] | Crabgrass plant response rating [5, 18]
5: Wild oats plant response rating [3, 11] | Plant response rating, Wild oats [3, 27]
9: Plant response rating, Crabgrass [5, 9]
